Measurements reported in paper PMC10379611 (International Journal of Molecular Sciences, 2023).
Read-outs that look alike come from different tables or passages of the source.

Tests used:
OATP1A2 = target: T1, OATP1A2 (Homo sapiens, UniProt P46721); assay: OATP1A2 uptake assay (SR101) in overexpressing A431 cells
T1 sequence (P46721 1-670): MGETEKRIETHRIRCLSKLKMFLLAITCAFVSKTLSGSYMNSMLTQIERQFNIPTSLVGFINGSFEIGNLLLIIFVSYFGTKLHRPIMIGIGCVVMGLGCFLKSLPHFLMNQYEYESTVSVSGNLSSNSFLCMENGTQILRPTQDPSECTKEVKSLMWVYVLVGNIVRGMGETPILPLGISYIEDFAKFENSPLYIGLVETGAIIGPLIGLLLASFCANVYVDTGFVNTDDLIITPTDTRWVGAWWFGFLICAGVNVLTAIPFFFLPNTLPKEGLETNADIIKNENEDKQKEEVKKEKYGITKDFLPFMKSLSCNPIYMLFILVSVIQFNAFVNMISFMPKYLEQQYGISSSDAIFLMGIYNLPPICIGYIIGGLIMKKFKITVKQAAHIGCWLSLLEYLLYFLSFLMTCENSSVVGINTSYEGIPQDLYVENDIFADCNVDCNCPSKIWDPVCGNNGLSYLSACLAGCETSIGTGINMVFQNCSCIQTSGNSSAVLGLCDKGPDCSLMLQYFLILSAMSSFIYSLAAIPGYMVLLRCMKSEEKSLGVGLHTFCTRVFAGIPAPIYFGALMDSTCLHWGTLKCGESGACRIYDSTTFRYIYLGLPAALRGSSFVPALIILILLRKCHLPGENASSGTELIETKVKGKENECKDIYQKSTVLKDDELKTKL
Description: To study the function of OATPs, we used A431 cells overexpressing OATP1A2, OATP1B1, OATP1B3, or OATP2B1 and mock-transfected A431 cells, generated as previously described, as controls. The interactions between OATPs and the test compounds were studied in a microplate-based indirect assay by employing fluorescent dye substrates: pyranine for OATP1B1, OATP1B3, OATP2B1 and sulforhodamine 101 for OATP1A2 [44, 45]. Briefly, OATP-overexpressing A431 cells and mock-transfected A431 cells were seeded on 96-well plates (8 × 10^4 cells/well). The next day, the cells were washed three times with phosphate buffered saline (PBS, pH 7.4) and preincubated with 50 μL uptake buffer (125 mM NaCl, 4.8 mM KCl, 1.2 mM CaCl2, 1.2 mM KH2PO4, 12 mM MgSO4, 25 mM MES (2-(Nmorpholino) ethanesulfonic acid, and 5.6 mM glucose, pH 5.5 for OATP2B1 and pH 7.4 for OATP1A2, OATP1B1, or OATP1B3) at 37 °C for 5 min in the presence or absence of the tested compounds. The reaction was started by the addition of a final concentration of 20 μM pyranine (OATP1B1, OATP1B3, OATP2B1) or 0.5 μM sulforhodamine 101 (OATP1A2). After incubation at 37 °C for 10 min, the reactions were stopped and the cells were washed three times with ice-cold PBS. Fluorescence was measured using an Enspire plate reader (Perkin Elmer, Waltham, MA, USA) (Ex/Em: 460/510 nm (pyranine) or 586/605 nm (sulforhodamine 101), and OATP-dependent transport activity was determined by subtracting the fluorescence measured in mock-transfected cells.

OATP1B3 = target: T2, OATP1B3 (Homo sapiens, UniProt Q9NPD5); assay: OATP1B3 uptake assay (pyranine) in overexpressing A431 cells
T2 sequence (Q9NPD5 1-702): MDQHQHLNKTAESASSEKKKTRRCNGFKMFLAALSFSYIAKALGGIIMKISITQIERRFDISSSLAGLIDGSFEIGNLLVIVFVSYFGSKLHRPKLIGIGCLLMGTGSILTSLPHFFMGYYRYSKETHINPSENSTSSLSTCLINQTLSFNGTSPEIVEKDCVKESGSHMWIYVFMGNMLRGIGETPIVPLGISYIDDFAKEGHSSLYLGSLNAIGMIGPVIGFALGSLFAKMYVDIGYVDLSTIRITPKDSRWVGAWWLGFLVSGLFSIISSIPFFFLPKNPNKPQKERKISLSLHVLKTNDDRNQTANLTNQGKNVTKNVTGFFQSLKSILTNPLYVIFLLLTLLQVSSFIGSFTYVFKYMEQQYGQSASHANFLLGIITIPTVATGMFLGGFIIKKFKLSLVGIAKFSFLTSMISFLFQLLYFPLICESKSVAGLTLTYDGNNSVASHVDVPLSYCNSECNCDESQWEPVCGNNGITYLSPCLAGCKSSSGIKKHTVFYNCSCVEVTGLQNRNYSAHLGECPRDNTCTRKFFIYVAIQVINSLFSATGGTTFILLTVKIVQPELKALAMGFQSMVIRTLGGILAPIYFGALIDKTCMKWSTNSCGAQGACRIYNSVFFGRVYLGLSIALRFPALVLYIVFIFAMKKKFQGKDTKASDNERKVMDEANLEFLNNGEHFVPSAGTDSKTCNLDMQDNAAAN

OATP1B1 = target: T3, OATP1B1 (Homo sapiens, UniProt Q9Y6L6); assay: OATP1B1 uptake assay (pyranine) in overexpressing A431 cells
T3 sequence (Q9Y6L6 1-691): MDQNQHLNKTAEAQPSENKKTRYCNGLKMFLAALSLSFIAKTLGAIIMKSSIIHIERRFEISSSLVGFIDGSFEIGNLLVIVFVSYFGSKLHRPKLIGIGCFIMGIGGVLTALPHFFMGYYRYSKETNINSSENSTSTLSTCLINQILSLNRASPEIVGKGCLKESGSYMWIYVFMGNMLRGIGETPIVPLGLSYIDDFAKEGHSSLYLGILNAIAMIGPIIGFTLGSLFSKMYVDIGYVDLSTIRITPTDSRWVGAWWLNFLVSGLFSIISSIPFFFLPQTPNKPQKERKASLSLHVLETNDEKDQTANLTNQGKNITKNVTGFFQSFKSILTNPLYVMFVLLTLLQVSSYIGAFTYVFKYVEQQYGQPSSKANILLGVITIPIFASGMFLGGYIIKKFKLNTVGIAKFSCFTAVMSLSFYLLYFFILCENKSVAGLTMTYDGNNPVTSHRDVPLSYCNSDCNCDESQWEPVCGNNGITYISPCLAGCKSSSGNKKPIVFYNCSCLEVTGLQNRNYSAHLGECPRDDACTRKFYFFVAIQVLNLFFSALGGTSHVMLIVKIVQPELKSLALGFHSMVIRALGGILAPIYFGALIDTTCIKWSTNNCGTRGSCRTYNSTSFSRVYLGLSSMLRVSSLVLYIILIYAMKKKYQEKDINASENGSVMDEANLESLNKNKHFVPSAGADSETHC

Which results are given for `O=c1nc(NO)ccn1[C@@H]1O[C@H](CO)[C@@H](O)[C@H]1O` [EIDD-1931]?
maximum inhibition of OATP1A2 (OATP1A2; at 200 μM, SR101): 20–40%; IC50 (OATP1A2; read-out: estimated IC50, OATP1A2, SR101 substrate, A431 cells): > 200 µM; maximum inhibition of OATP1B3 (OATP1B3; at 200 μM, pyranine): 20–40%; IC50 (OATP1B3; read-out: estimated IC50, OATP1B3, pyranine substrate, A431 cells): > 200 µM; maximum inhibition of OATP1B1 (OATP1B1; at 200 μM, pyranine): 20–40%; IC50 (OATP1B1; read-out: estimated IC50, OATP1B1, pyranine substrate, A431 cells): > 200 µM

What does the source list for `CC(C)C(=O)OC[C@H]1O[C@@H](n2ccc(NO)nc2=O)[C@H](O)[C@@H]1O` [EIDD-2801, Molnupiravir]?
IC50 (OATP1A2): > 200 µM; inhibition at 10 min, 200 µM (OATP1A2; human, A431 cells overexpressing OATP1A2, pH 7.4, probe sulforhodamine 101 (0.5 μM)): 20 to 40%; IC50 (OATP1B3): > 200 µM; inhibition at 10 min, 200 µM (OATP1B3; human, A431 cells overexpressing OATP1B3, pH 7.4, probe pyranine (20 μM)): 20 to 40%; IC50 (OATP1B1): > 200 µM; inhibition at 10 min, 200 µM (OATP1B1; human, A431 cells overexpressing OATP1B1, pH 7.4, probe pyranine (20 μM)): 20 to 40%

How did the “inhibition of OATP1A2 by Nirmatrelvir alone” value (OATP1A2; at 20 μM) turn out when `CC(C)(C)[C@H](NC(=O)C(F)(F)F)C(=O)N1C[C@H]2[C@@H]([C@H]1C(=O)N[C@H](C#N)C[C@@H]1CCNC1=O)C2(C)C` [Nirmatrelvir] was run?
Its value is “only a minor inhibitory effect”.

And the IC50 at 10 min (OATP1A2; human, pH 7.4)?
Its IC50 at 10 min is 79.5 µM.

And the “inhibition of OATP1B3 by Nirmatrelvir alone” value (OATP1B3; at 20 μM)?
The value was “only a minor inhibitory effect”.

And the “inhibition of OATP1B1 by Nirmatrelvir alone” value (OATP1B1; at 20 μM)?
Its value is “only a minor inhibitory effect”.
